# Where two headings read alike, the source gives them in different places.
# Columns and labels:
# Type in all cases: cell-based
# Rhizoctonia solani = test: Broth microdilution MIC of individual antifungals; conditions: individual antifungal, 25% PDB, about 25° C., 72 hours, range over N independent triplicate studies; for MIC: read-out: Independent MIC
# [1] = system: Colletotrichum orbiculare; test: Broth microdilution MIC of individual antifungals; conditions: for MIC: read-out: Independent MIC
# Fusarium graminearum = test: microbe, parasite or virus in culture; conditions: for MIC: 72 h, read-out: Independent MIC
# Aspergillus niger = test: Broth microdilution MIC of individual antifungals; conditions: for MIC: read-out: Independent MIC
# Botrytis cinerea 10-1728 = test: Broth microdilution MIC of individual antifungals; conditions: Botrytis cinerea 10-1728, individual antifungal, 25% PDB, about 25° C., 72 hours, range over N independent triplicate studies; for MIC: 101728, read-out: Independent MIC
# Mucor sp. = test: Broth microdilution MIC of individual antifungals; conditions: individual antifungal, 25% PDB, about 25° C., 72 hours, range over N independent triplicate studies
# Sclerotinia homoeocarpa = test: Broth microdilution MIC of individual antifungals; conditions: Sclerotinia homoeocarpa, individual antifungal, 25% PDB, about 25° C., 72 hours, range over N independent triplicate studies; for MIC: Clarireedia homoeocarpa, read-out: Independent MIC
# Magnaporthe grisea = test: microbe, parasite or virus in culture; conditions: for MIC: Pyricularia oryzae, 72 h, read-out: Independent MIC
# Candida albicans = test: Broth microdilution MIC of individual antifungals; conditions: for MIC: read-out: Independent MIC
# Aspergillus flavus = test: Broth microdilution MIC of individual antifungals; conditions: individual antifungal, 25% PDB, about 25° C., 72 hours, range over N independent triplicate studies; for MIC: read-out: Independent MIC
# Rhizopus sp. = test: Broth microdilution MIC of individual antifungals; conditions: Rhizopus sp., individual antifungal, 25% PDB, about 25° C., 72 hours, range over N independent triplicate studies; for MIC: Rhizopus, 72 h, read-out: Independent MIC
# [2] = system: Fusarium solani f. sp. pisi (MP VI); test: Broth microdilution MIC of individual antifungals; conditions: Fusarium solani f. sp. pisi (MP VI), individual antifungal, 25% PDB, about 25° C., 72 hours, range over N independent triplicate studies
# Phytophthora pini = test: Broth microdilution MIC of individual antifungals; conditions: individual antifungal, 25% PDB, about 25° C., 72 hours, range over N independent triplicate studies
# Alternaria solani = test: Broth microdilution MIC of individual antifungals; conditions: individual antifungal, 25% PDB, about 25° C., 72 hours, range over N independent triplicate studies; for MIC: read-out: Independent MIC
# Aspergillus fumigatus = test: Broth microdilution MIC of individual antifungals; conditions: individual antifungal, 25% PDB, about 25° C., 72 hours, range over N independent triplicate studies; for MIC: read-out: Independent MIC
# [3] = system: Mycosphaerella zeae-maydis; test: Broth microdilution MIC of individual antifungals; conditions: individual antifungal, 25% PDB, about 25° C., 72 hours, range over N independent triplicate studies; for MIC: Didymella maydis
# Aureobasidium pullulans = test: Broth microdilution MIC of individual antifungals; conditions: individual antifungal, 25% PDB, about 25° C., 72 hours, range over N independent triplicate studies; for MIC: read-out: Independent MIC
# Pythium aphanodermatum = test: Broth microdilution MIC of individual antifungals; conditions: individual antifungal, 25% PDB, about 25° C., 72 hours, range over N independent triplicate studies
# Botrytis cinerea B17 = test: Broth microdilution MIC of individual antifungals; conditions: Botrytis cinerea B17, individual antifungal, 25% PDB, about 25° C., 72 hours, range over N independent triplicate studies; for MIC: read-out: Independent MIC
# Stachybotrys chartarum = test: Broth microdilution MIC of individual antifungals; conditions: individual antifungal, 25% PDB, about 25° C., 72 hours, range over N independent triplicate studies; for MIC: read-out: Independent MIC
# Fusarium verticillioides = test: Broth microdilution MIC of individual antifungals; conditions: individual antifungal, 25% PDB, about 25° C., 72 hours, range over N independent triplicate studies; for MIC: read-out: Independent MIC
# Fusarium oxysporum ST33 = test: Broth microdilution MIC of individual antifungals; conditions: individual antifungal, 25% PDB, about 25° C., 72 hours, range over N independent triplicate studies
# [4] = system: Fusarium oxysporum f. sp. lycopersici; test: Broth microdilution MIC of individual antifungals; conditions: individual antifungal, 25% PDB, about 25° C., 72 hours, range over N independent triplicate studies
# Penicillium chrysogenum = test: Broth microdilution MIC of individual antifungals; conditions: individual antifungal, 25% PDB, about 25° C., 72 hours, range over N independent triplicate studies; for MIC: read-out: Independent MIC
# [5] = individual antifungal, 25% PDB, about 25° C., 72 hours, range over N independent triplicate studies
compound,measurement,setting,value
"CC(C)OP(=O)(OC(C)C)SCc1ccccc1 [Iprobenfos, iprobenfos]",MIC,Rhizoctonia solani,200 to 400 µg/mL
same,MIC,[1]; 72 h,12.5 to 25 µg/mL
same,MIC,Fusarium graminearum; Fusarium graminearum,200 to 400 µg/mL
same,MIC,Aspergillus niger; 72 h,200 to 300 µg/mL
same,MIC,Botrytis cinerea 10-1728,100 to 200 µg/mL
same,MIC,Mucor sp.,100 to 200 µg/mL
same,MIC,Sclerotinia homoeocarpa,12.5 to 25 µg/mL
same,MIC,Magnaporthe grisea,25 µg/mL
same,MIC,Candida albicans; 72 h,200 to 400 µg/mL
"Cc1cc(C)nc(Nc2ccccc2)n1 [Pyrimethanil, pyrimethanil]",MIC,Aspergillus flavus,25 µg/mL
same,MIC,Fusarium graminearum; Fusarium graminearum,200 µg/mL
same,MIC,Rhizopus sp.,200 to 400 µg/mL
same,MIC,[2]; read-out: Independent MIC,200 to 400 µg/mL
same,MIC,Phytophthora pini,100 µg/mL
same,MIC,Alternaria solani,100 to 200 µg/mL
same,MIC,Aspergillus fumigatus,0.78 to 1 µg/mL
same,MIC,Aspergillus niger; [5],100 to 200 µg/mL
same,MIC,Botrytis cinerea 10-1728,50 to 100 µg/mL
same,MIC,[3],6.25 to 12.5 µg/mL
same,MIC,Mucor sp.,200 µg/mL
same,MIC,Aureobasidium pullulans,25 to 50 µg/mL
same,MIC,Pythium aphanodermatum,100 to 200 µg/mL
same,MIC,Sclerotinia homoeocarpa,50 to 100 µg/mL
same,MIC,Magnaporthe grisea,100 to 200 µg/mL
same,MIC,Botrytis cinerea B17,50 to 100 µg/mL
same,MIC,Stachybotrys chartarum,50 to 90 µg/mL
same,MIC,Candida albicans; [5],200 µg/mL
same,MIC,Fusarium verticillioides,200 µg/mL
same,MIC,Fusarium oxysporum ST33,200 µg/mL
same,MIC,[4],200 µg/mL
"CC(C)(C)C(O)(CCc1ccc(Cl)cc1)Cn1cncn1 (centres unmarked) [Tebuconazole, tebuconazole]",MIC,Rhizoctonia solani,3.12 to 6.25 µg/mL
same,MIC,Aspergillus flavus,3 to 3.12 µg/mL
same,MIC,[1]; [5],1.56 to 3.13 µg/mL
same,MIC,Rhizopus sp.,0.78 µg/mL
same,MIC,Alternaria solani,25 to 50 µg/mL
same,MIC,Aspergillus fumigatus,0.78 to 1.56 µg/mL
same,MIC,Aspergillus niger; [5],3.12 µg/mL
same,MIC,Botrytis cinerea 10-1728,1 to 1.56 µg/mL
same,MIC,[3],50 to 100 µg/mL
same,MIC,Mucor sp.,12.5 to 15 µg/mL
same,MIC,Sclerotinia homoeocarpa,0.39 to 0.78 µg/mL
same,MIC,Candida albicans; [5],100 to 200 µg/mL
same,MIC,Fusarium verticillioides,1.56 to 3 µg/mL
c1ccc2[nH]c(-c3cscn3)nc2c1 [Thiabendazole],MIC,Aspergillus flavus,12.5 to 40 µg/mL
same,MIC,Fusarium graminearum; Fusarium graminearum,1.5 to 3.12 µg/mL
same,MIC,Phytophthora pini,100 µg/mL
same,MIC,Aspergillus fumigatus,12.5 to 50 µg/mL
same,MIC,Penicillium chrysogenum,0.375 to 0.39 µg/mL
same,MIC,Aspergillus niger; [5],12.5 to 50 µg/mL
same,MIC,Botrytis cinerea 10-1728,200 to 400 µg/mL
same,MIC,[3],12.5 to 25 µg/mL
same,MIC,Aureobasidium pullulans,0.2 to 0.39 µg/mL
same,MIC,Pythium aphanodermatum,200 to 400 µg/mL
same,MIC,Sclerotinia homoeocarpa,20 to 25 µg/mL
same,MIC,Magnaporthe grisea,1.56 to 3.13 µg/mL
same,MIC,Botrytis cinerea B17,50 µg/mL
same,MIC,Stachybotrys chartarum,25 to 30 µg/mL
same,MIC,Fusarium verticillioides,3 to 6.25 µg/mL
same,MIC,Fusarium oxysporum ST33,25 to 80 µg/mL
same,MIC,[4],200 to 400 µg/mL
"COC(=O)NC(=S)Nc1ccccc1NC(=S)NC(=O)OC [Thiophanate-Methyl, thiophanate-methyl]",MIC,Fusarium graminearum; Fusarium graminearum,100 to 400 µg/mL
same,MIC,Phytophthora pini,25 µg/mL
same,MIC,Aspergillus fumigatus,50 to 100 µg/mL
same,MIC,Penicillium chrysogenum,12.5 µg/mL
same,MIC,Aspergillus niger; [5],25 µg/mL
same,MIC,Botrytis cinerea 10-1728,200 to 400 µg/mL
same,MIC,[3],25 to 50 µg/mL
same,MIC,Mucor sp.,200 to 400 µg/mL
same,MIC,Aureobasidium pullulans,0.1 to 0.39 µg/mL
same,MIC,Pythium aphanodermatum,400 µg/mL
same,MIC,Sclerotinia homoeocarpa,0.5 to 1 µg/mL
same,MIC,Magnaporthe grisea,25 to 50 µg/mL
mancozeb,Independent MIC,Aspergillus flavus,(6.25-25)^ μg/mL
same,Independent MIC,[1]; [5],(6.25-12.5) μg/mL
same,Independent MIC,"Fusarium graminearum; Fusarium graminearum, individual antifungal, 25% PDB, about 25° C., 72 hours, range over N independent triplicate studies",12.5 µg/mL
same,Independent MIC,Rhizopus sp.,(25-80) μg/mL
same,Independent MIC,[2],100 µg/mL
same,Independent MIC,Phytophthora pini,0.39 µg/mL
same,Independent MIC,Alternaria solani,(10-12.5) μg/mL
same,Independent MIC,Aspergillus fumigatus,100 µg/mL
same,Independent MIC,Penicillium chrysogenum,(6.25-12.5) μg/mL
same,Independent MIC,Aspergillus niger; [5],(25-50) μg/mL
same,Independent MIC,Botrytis cinerea 10-1728,3.125 µg/mL
same,Independent MIC,[3],(3.125-8) ^ μg/mL
same,Independent MIC,Mucor sp.,(50-100) μg/mL
same,Independent MIC,Aureobasidium pullulans,(6.25-12.5) μg/mL
same,Independent MIC,Pythium aphanodermatum,(28-50) μg/mL
same,Independent MIC,Sclerotinia homoeocarpa,(8-20) μg/mL
same,Independent MIC,"Magnaporthe grisea; Magnaporthe grisea, individual antifungal, 25% PDB, about 25° C., 72 hours, range over N independent triplicate studies",6.25 µg/mL
same,Independent MIC,Botrytis cinerea B17,(32-64) μg/mL
same,Independent MIC,Stachybotrys chartarum,(3.125-6.25) μg/mL
same,Independent MIC,Candida albicans; [5],50 µg/mL
same,Independent MIC,Fusarium verticillioides,(4-8) μg/mL
same,Independent MIC,Fusarium oxysporum ST33,(32-80) μg/mL
same,Independent MIC,[4],(6-12.5) μg/mL
maneb,Independent MIC,Rhizoctonia solani,(50-100) μg/mL
same,Independent MIC,Aspergillus flavus,(12.5-25)^ μg/mL
same,Independent MIC,[1]; [5],(3.13-6.25) μg/mL
same,Independent MIC,Fusarium graminearum,12.5 µg/mL
same,Independent MIC,Rhizopus sp.,(50-100) μg/mL
same,Independent MIC,[2],25 µg/mL
same,Independent MIC,Phytophthora pini,3.125 µg/mL
same,Independent MIC,Alternaria solani,(25-50) μg/mL
same,Independent MIC,Aspergillus fumigatus,3.125 µg/mL
same,Independent MIC,Penicillium chrysogenum,25 µg/mL
same,Independent MIC,Aspergillus niger; [5],(50-100) μg/mL
same,Independent MIC,Botrytis cinerea 10-1728,(12.5-40)^ μg/mL
same,Independent MIC,[3],25 µg/mL
same,Independent MIC,Mucor sp.,(25-50) μg/mL
same,Independent MIC,Sclerotinia homoeocarpa,1.56 µg/mL
same,Independent MIC,Magnaporthe grisea,1.56 µg/mL
same,Independent MIC,Candida albicans; [5],1.56 µg/mL
same,Independent MIC,Fusarium verticillioides,6.25 µg/mL

# — patent US9737075B2, “Synergistic benzoxaborole-containing anti-fungicidal composition” (The Penn State Research Foundation, priority 2015, dated 2017)
